Values of other authors, collected in patent US9163134B2, “Highly functional additive for polymerization and method for preparing vinyl chloride seeds using the same” (LG CHEM, LTD., priority 2011, dated 2015).
Converted amounts (≈) assume the structure as drawn.

Solubility in water (mg/L) | Solubility in water | Structure (SMILES)
∞ | – | CCO [C2H5—OH]
– | 540 µg/mL (≈ 4.15 mM) | CCCCCCCCO [C8H17—OH]
– | 37 µg/mL (≈ 0.234 mM) | CCCCCCCCCCO [C10H21—OH]
– | 6260 µg/mL (≈ 61.3 mM) | CCCCCCO [C6H13—OH]
